ChEMBL document CHEMBL4627246, “Pyroglutamide-Based P2X7 Receptor Antagonists Targeting Inflammatory Bowel Disease” (J Med Chem, 2020)

How the values were obtained:
Format in all cases: cell-based
EKVX = assay: Cytotoxicity against human EKVX cells assessed as effect on cell growth at 10 uM incubated for 48 hrs by sulforhodamine B assay
SK-OV-3 = assay: Cytotoxicity against human SKOV3 cells assessed as effect on cell growth at 10 uM incubated for 48 hrs by sulforhodamine B assay; details: sk-ov-3, 48 h
MCF7 = assay: Cytotoxicity against human MCF7 cells assessed as effect on cell growth at 10 uM incubated for 48 hrs by sulforhodamine B assay; details: mcf7, 48 h
RXF 393 = assay: Cytotoxicity against human RXF393 cells assessed as effect on cell growth at 10 uM incubated for 48 hrs by sulforhodamine B assay; details: rxf 393, 48 h
ACHN = assay: Cytotoxicity against human ACHN cells assessed as effect on cell growth at 10 uM incubated for 48 hrs by sulforhodamine B assay
COLO 205 = assay: Cytotoxicity against human COLO205 cells assessed as effect on cell growth at 10 uM incubated for 48 hrs by sulforhodamine B assay; details: colo 205, 48 h
MDA-MB-231 = assay: Cytotoxicity against human MDA-MB-231 cells assessed as effect on cell growth at 10 uM incubated for 48 hrs by sulforhodamine B assay; details: mda-mb-231, 48 h
NCI-H322M = assay: Cytotoxicity against human NCI-H322M cells assessed as effect on cell growth at 10 uM incubated for 48 hrs by sulforhodamine B assay
786-0 = assay: Cytotoxicity against human 786-0 cells assessed as effect on cell growth at 10 uM incubated for 48 hrs by sulforhodamine B assay; details: 786-0, 48 h
Malme-3M = assay: Cytotoxicity against human MALME-3M cells assessed as effect on cell growth at 10 uM incubated for 48 hrs by sulforhodamine B assay
SK-MEL-28 = assay: Cytotoxicity against human SK-MEL-28 cells assessed as effect on cell growth at 10 uM incubated for 48 hrs by sulforhodamine B assay; details: sk-mel-28, 48 h
NCI-H460 = assay: Cytotoxicity against human NCI-H460 cells assessed as effect on cell growth at 10 uM incubated for 48 hrs by sulforhodamine B assay; details: nci-h460, 48 h
K562 = assay: Cytotoxicity against human K562 cells assessed as effect on cell growth at 10 uM incubated for 48 hrs by sulforhodamine B assay; details: k562, 48 h
A498 = assay: Cytotoxicity against human A498 cells assessed as effect on cell growth at 10 uM incubated for 48 hrs by sulforhodamine B assay; details: a498, 48 h
SW-620 = assay: Cytotoxicity against human SW620 cells assessed as effect on cell growth at 10 uM incubated for 48 hrs by sulforhodamine B assay; details: sw-620, 48 h
OVCAR-5 = assay: Cytotoxicity against human OVCAR5 cells assessed as effect on cell growth at 10 uM incubated for 48 hrs by sulforhodamine B assay; details: ovcar-5, 48 h
DU-145 = assay: Cytotoxicity against human DU145 cells assessed as effect on cell growth at 10 uM incubated for 48 hrs by sulforhodamine B assay; details: du-145, 48 h
OVCAR-4 = assay: Cytotoxicity against human OVCAR4 cells assessed as effect on cell growth at 10 uM incubated for 48 hrs by sulforhodamine B assay; details: ovcar-4, 48 h
TK-10 = assay: Cytotoxicity against human TK10 cells assessed as effect on cell growth at 10 uM incubated for 48 hrs by sulforhodamine B assay; details: tk-10, 48 h
OVCAR-8 = assay: Cytotoxicity against human OVCAR8 cells assessed as effect on cell growth at 10 uM incubated for 48 hrs by sulforhodamine B assay; details: ovcar-8, 48 h

Measured: Activity

O=C(NCCc1ccccc1)[C@@H]1CCC(=O)N1Cc1ccc(Cl)cc1Cl
Non-Toxic: all assays above

O=C(NCc1ccc(Cl)cc1Cl)[C@@H]1CCC(=O)N1c1cccs1
Non-Toxic: all assays above

O=C(NCc1ccc(Cl)cc1Cl)[C@@H]1CCC(=O)N1Cc1ccccc1
Non-Toxic: all assays above

COC(=O)[C@@H]1C/C(=C\NCc2ccc(Cl)cc2Cl)C(=O)N1C(=O)OC
Non-Toxic: all assays above

CN(C)/C=C1\C[C@@H](C(=O)NCc2ccc(Cl)cc2Cl)N(c2cccs2)C1=O
Non-Toxic: all assays above

C[n+]1ccccc1C(=O)NCc1ccc(Cl)cc1Cl.[I-]
Non-Toxic: all assays above

CN1C(=O)CC[C@H]1C(=O)NCc1cc(C(F)(F)F)ccc1Cl
Non-Toxic: all assays above

O=C1N[C@H](C(=O)NCc2ccc(Cl)cc2Cl)C/C1=C/NCc1ccc(Cl)cc1Cl
Non-Toxic: all assays above

O=C(NCc1ccc(Cl)cc1Cl)[C@@H]1CCC(=O)N1c1nccs1
Non-Toxic: all assays above

O=C1CCCC(C(=O)NCc2ccc(Cl)cc2Cl)N1 (stereo not given)
Non-Toxic: all assays above

Cc1ccc(NC(=O)[C@@H]2CCC(=O)N2c2ccccc2)cc1
Non-Toxic: all assays above

O=C(NCc1ccc(Cl)cc1Cl)[C@@H]1CCC(=O)N1c1ccc(Cl)cc1
Non-Toxic: all assays above
